Data: patent publication US20240190849A1, “AMINOPYRIMIDINE COMPOUNDS AND METHODS OF THEIR USE” (TYRA BIOSCIENCES, INC., priority 2021, published 2024)

Assays:
FGFR3 = molecular target: T1, FGFR3 (Homo sapiens, UniProt P22607); test: Kinase binding assay (kinase-tagged T7 phage, affinity beads, qPCR readout), FGFR3; conditions: FGFR binding data
T1 construct: made in house; host or cells: E. coli derived from BL21, infected with T7 phage
How it was run: (§1)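 Dissociation constants were measured by bead-capture competition at 0.9% DMSO, room temperature, 1 hour. qPCR of eluted kinase supplied the signal.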

[1] = test system: KG-1 (Acute Myeloid Leukemia), FGFR1OP2-FGFR1 fusion; test: Cancer cell viability assay (Cell Titer-Glo), KG-1; assay type: cell-based; conditions: Homo sapiens, KG-1 cells, 72 hours
Source text: (§2) RT112/84, UM-UC-14, SNU-16 and KG-1 Cancer Cell Line Cell Viability Assays
(§3) To detect the change of intracellular ATP by Cell Titer-Glo@ and to evaluate the inhibitory effect of the compounds on cancer cell lines by determining the in vitro IC50 value of the compounds.
(§4) Cell Titer-Glo@ 2.0 Luminescent cell viability assay reagent was purchased from Promega (Madison, WI). RT112/84, SNU-16, and KG-1 cell lines were purchased from American Type Culture Collection (Manassas, VA). UM-UC-14 cell line was purchased from Sigma (St. Louis, MO). RT112/84, UM-UC-14, SNU-16, and KG-1 cells were cultured in RPMI1640 media supplemented with 10% fetal bovine serum. Cultures were maintained at 37° C. in a humidified atmosphere of 5% CO2 and 95% air.
(§5) Cell Viability Assay Procedure: Cells were plated in 96-well clear bottom/white plates (Corning #3903) at 10,000 cells/well in 100 μl of media, incubated overnight. The next day, test compound DMSO stock solutions were made at 10 mM and 2 μM final concentration. Compounds were then added to cells in a 9-dose, […] dilution series starting at 30 μM with an HP 300e Digital Dispenser (each dose was applied in triplicate). DMSO was backfilled to each well up to 301 nL total volume of test compound+DMSO, and a total of 301 nL DMSO was added to a control/no test compound well in triplicate. The cells in cell culture plates were incubated with the compounds at 37° C. and 5% CO2 for 72 hours. Then 50 μl of Cell Titer Glo 2.0 reagent was added to each well of the cell culture plates. The contents were covered from light and mixed on an orbital shaker at room temperature for 10 min. Luminescence was recorded by a Synergy H1 Microplate Reader (Biotek, Winooski, VT). Cells were assessed as a percentage of DMSO only treated control cells. Curves were plotted and IC50 values were calculated using the GraphPad Prism 8 program based on a sigmoidal dose-response equation (4 parameter).

FGFR2 = molecular target: T2, FGFR2 (Homo sapiens, UniProt P21802); test: Kinase binding assay (kinase-tagged T7 phage, affinity beads, qPCR readout), FGFR2; conditions: FGFR binding data
T2 construct: made in house; host or cells: E. coli derived from BL21, infected with T7 phage
T2 sequence (P21802 22-821): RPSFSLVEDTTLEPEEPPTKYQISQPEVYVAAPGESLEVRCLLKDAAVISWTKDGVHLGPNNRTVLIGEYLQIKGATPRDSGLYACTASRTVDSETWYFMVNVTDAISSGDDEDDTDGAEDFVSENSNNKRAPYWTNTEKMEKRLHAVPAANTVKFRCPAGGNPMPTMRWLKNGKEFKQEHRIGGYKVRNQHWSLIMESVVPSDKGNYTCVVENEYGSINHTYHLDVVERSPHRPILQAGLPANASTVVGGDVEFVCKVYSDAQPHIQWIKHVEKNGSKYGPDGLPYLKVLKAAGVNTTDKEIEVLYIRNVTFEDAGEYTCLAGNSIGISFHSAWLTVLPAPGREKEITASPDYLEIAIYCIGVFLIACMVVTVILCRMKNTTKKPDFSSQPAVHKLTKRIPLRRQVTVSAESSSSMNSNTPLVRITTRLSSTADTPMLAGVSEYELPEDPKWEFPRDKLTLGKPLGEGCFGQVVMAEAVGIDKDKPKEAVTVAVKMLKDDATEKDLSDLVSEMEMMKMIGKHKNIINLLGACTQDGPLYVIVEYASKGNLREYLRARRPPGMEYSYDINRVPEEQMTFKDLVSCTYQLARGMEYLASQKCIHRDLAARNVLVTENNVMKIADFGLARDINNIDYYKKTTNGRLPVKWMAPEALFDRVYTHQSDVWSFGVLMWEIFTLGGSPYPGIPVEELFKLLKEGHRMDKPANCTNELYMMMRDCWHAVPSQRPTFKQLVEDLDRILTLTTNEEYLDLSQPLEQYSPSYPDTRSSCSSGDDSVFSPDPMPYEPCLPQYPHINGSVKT
How it was run: as §1

[2] = test system: RT112/84 (Bladder Cancer), FGFR3-TACC3 fusion; test: Cancer cell viability assay (Cell Titer-Glo), RT112/84; assay type: cell-based; conditions: Homo sapiens, RT112/84 cells, 72 hours
Source text: as §2, §3, §4, §5

[3] = test system: UM-UC-14 (Bladder Cancer), FGFR3(S249C); test: Cancer cell viability assay (Cell Titer-Glo), UM-UC-14; assay type: cell-based; conditions: UMUC14, UM-UC-14 cells, 72 hours
How it was run: (§6)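 Cells seeded at 10,000/well in RPMI1640 with 10% FBS, then exposed 72 h at 37° C. to a 9-point 10-fold dilution series from 30 μM, in triplicate. Viability read as ATP luminescence (CellTiter-Glo 2.0) as percent of DMSO control; IC50 from 4-parameter sigmoidal fit.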

FGFR3 (V555M) = molecular target: T3, FGFR3 (V555M) (Homo sapiens, UniProt P22607, V555M); test: Kinase binding assay (kinase-tagged T7 phage, affinity beads, qPCR readout), FGFR3 (V555M); conditions: FGFR binding data
T3 construct: made in house; host or cells: E. coli derived from BL21, infected with T7 phage
T3 sequence (P22607 23-806 V555M): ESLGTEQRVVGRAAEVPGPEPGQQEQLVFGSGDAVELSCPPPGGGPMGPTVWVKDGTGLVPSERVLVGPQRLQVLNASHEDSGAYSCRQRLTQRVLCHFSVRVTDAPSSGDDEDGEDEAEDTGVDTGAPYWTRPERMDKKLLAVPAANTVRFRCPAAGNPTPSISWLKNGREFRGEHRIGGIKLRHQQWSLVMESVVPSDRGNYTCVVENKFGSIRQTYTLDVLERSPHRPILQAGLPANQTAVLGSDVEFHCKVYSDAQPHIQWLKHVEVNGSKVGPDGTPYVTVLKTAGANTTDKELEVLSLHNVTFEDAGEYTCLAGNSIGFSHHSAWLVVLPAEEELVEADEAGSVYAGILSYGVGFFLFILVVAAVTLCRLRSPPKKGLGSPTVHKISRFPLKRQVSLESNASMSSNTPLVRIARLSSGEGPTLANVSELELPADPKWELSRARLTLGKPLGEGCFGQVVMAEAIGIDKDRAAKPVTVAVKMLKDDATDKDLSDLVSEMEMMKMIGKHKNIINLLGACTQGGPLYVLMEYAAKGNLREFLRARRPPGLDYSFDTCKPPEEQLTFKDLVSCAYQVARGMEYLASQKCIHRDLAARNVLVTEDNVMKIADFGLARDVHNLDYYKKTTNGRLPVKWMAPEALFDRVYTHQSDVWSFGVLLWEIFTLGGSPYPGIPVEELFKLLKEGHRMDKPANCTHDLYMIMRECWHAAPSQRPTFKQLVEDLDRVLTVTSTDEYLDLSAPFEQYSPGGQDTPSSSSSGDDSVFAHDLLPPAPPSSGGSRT
How it was run: as §1

FGFR1 = molecular target: T4, FGFR1 (Homo sapiens, UniProt P11362); test: Kinase binding assay (kinase-tagged T7 phage, affinity beads, qPCR readout), FGFR1; conditions: FGFR binding data
T4 construct: made in house; host or cells: E. coli derived from BL21, infected with T7 phage
T4 sequence (P11362 22-822): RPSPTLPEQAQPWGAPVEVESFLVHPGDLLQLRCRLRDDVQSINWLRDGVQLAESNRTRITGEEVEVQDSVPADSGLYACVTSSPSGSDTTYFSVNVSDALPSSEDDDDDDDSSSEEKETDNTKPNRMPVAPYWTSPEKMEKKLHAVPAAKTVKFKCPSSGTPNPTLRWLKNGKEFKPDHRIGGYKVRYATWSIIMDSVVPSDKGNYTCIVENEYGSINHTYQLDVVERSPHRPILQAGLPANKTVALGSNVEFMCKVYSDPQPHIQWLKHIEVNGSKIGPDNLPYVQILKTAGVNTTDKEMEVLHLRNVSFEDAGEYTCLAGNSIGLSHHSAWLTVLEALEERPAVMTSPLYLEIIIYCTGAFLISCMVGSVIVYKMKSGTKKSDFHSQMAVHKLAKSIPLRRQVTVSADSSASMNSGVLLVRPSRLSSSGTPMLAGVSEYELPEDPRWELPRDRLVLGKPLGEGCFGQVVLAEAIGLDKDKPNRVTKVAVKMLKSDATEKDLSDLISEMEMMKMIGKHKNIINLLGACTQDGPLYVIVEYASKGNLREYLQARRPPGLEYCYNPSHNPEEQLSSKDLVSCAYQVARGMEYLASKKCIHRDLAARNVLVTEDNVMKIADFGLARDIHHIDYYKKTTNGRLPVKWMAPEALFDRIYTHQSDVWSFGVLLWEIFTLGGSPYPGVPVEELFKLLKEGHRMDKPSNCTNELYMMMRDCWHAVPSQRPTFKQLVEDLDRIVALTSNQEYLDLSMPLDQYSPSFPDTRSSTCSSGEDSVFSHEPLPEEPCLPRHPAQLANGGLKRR
How it was run: as §1

[4] = test system: SNU-16 (Gastric Carcinoma), FGFR2 amplification; test: Cancer cell viability assay (Cell Titer-Glo), SNU-16; assay type: cell-based; conditions: Homo sapiens, SNU-16 cells, 72 hours, read-out: SNU16 FGFR2 (IC50 nM)
How it was run: as §6

T1 sequence (P22607 23-806): as the sequence (P22607 23-806 V555M) above, with M533V counted along it

SMILES	Kd (FGFR3) [nM]	IC50 [1] [nM]	Kd (FGFR2) [nM]	IC50 [2] [nM]	IC50 [3] [nM]	Kd (FGFR3 (V555M)) [nM]	Kd (FGFR1) [nM]	IC50 [4] [nM]
C=CC(=O)Nc1ccc2c(ccn2-c2nc(Nc3cnn(C)c3)ncc2Cl)c1 [Example 2, N-[1-[5-chloro-2-[(1-methylpyrazol-4-yl)amino]pyrimidin-4-yl]indol-5-yl]prop-2-enamide]	0.1 to 100	0.1 to 100	0.1 to 100	0.1 to 100	0.1 to 100	0.1 to 100	0.1 to 100	
C=CC(=O)Nc1ccc2c(c1)c(C)cn2-c1nc(Nc2cc(C)nn2C)ncc1C [Example 64, N-[1-[2-[(2,5-dimethylpyrazol-3-yl)amino]-5-methyl-pyrimidin-4-yl]-3-methyl-indol-5-yl]prop-2-enamide]	0.1 to 100	0.1 to 100	0.1 to 100	0.1 to 100	0.1 to 100	0.1 to 100	0.1 to 100	0.1 to 100
C=CC(=O)Nc1ccc2c(c1)c(C)cn2-c1nc(Nc2cnn(C)c2)ncc1Cl [Example 25, N-[1-[5-chloro-2-[(1-methylpyrazol-4-yl)amino]pyrimidin-4-yl]-3-methyl-indol-5-yl]prop-2-enamide]	0.1 to 100	0.1 to 100	0.1 to 100	0.1 to 100	0.1 to 100	0.1 to 100	0.1 to 100	
C=CC(=O)Nc1ccc2c(c1)c(C)cn2-c1ccnc(Nc2ccc(N3CCOCC3)cc2)n1 [Example 54, N-[3-Methyl-1-[2-(4-morpholinoanilino)pyrimidin-4-yl]indol-5-yl]prop-2-enamide]	0.1 to 100	0.1 to 100	0.1 to 100	0.1 to 100	0.1 to 100	0.1 to 100	0.1 to 100	0.1 to 100
C=CC(=O)Nc1ccc2c(c1)c(C)cn2-c1nc(Nc2cnn(C)c2)ncc1C [Example 8, N-[3-Methyl-1-[5-methyl-2-[(1-methylpyrazol-4-yl)amino]pyrimidin-4-yl]indol-5-yl]prop-2-enamide]	0.1 to 100	0.1 to 100	0.1 to 100	0.1 to 100	0.1 to 100	0.1 to 100	0.1 to 100	
C=CC(=O)Nc1ccc2c(-c3nc(Nc4cnn(C)c4)ncc3Cl)cn(C)c2c1 [Example 30, N-[3-[5-Chloro-2-[(1-methylpyrazol-4-yl)amino]pyrimidin-4-yl]-1-methyl-indol-6-yl]prop-2-enamide]	0.1 to 100	0.1 to 100	0.1 to 100	0.1 to 100	0.1 to 100	0.1 to 100	0.1 to 100	
C=CC(=O)Nc1ccc2c(c1)c(C)cn2-c1nc(Nc2cn(C)nc2OC)ncc1Cl [Example 26, N-[1-[5-chloro-2-[(3-methoxy-1-methyl-pyrazol-4-yl)amino]pyrimidin-4-yl]-3-methyl-indol-5-yl]prop-2-enamide]	0.1 to 100	0.1 to 100	0.1 to 100	100 to 250	0.1 to 100	0.1 to 100	0.1 to 100	
C=CC(=O)Nc1ccc2c(c1)c(C)cn2-c1nc(Nc2ccc(N3CCOCC3)c(F)c2)ncc1Cl [Example 22, N-[1-[5-chloro-2-(3-fluoro-4-morpholino-anilino)pyrimidin-4-yl]-3-methyl-indol-5-yl]prop-2-enamide]	0.1 to 100	0.1 to 100	0.1 to 100	0.1 to 100	0.1 to 100	0.1 to 100	0.1 to 100	
C=CC(=O)Nc1ccc2c(c1)c(C)cn2-c1nc(Nc2ccc(N3CCOCC3)cc2)ncc1C [Example 44, N-[3-methyl-1-[5-methyl-2-(4-morpholinoanilino)pyrimidin-4-yl]indol-5-yl]prop-2-enamide]	0.1 to 100	0.1 to 100	0.1 to 100	0.1 to 100	0.1 to 100	0.1 to 100	0.1 to 100	0.1 to 100
C=CC(=O)Nc1ccc2c(c1)c(C)cn2-c1nc(Nc2cnn(C3CCN(CC)CC3)c2)ncc1Cl [Example 42, N-[1-[5-chloro-2-[[1-(1-ethyl-4-piperidyl)pyrazol-4-yl]amino]-pyrimidin-4-yl]-3-methyl-indol-5-yl]prop-2-enamide]	0.1 to 100	0.1 to 100	0.1 to 100	0.1 to 100	0.1 to 100	0.1 to 100	0.1 to 100	
C=CC(=O)Nc1ccc2c(c1)c(C)cn2-c1nc(Nc2cccc(OCCN3CCOCC3)c2)ncc1C [Example 9, N-[3-methyl-1-[5-methyl-2-[3-(2-morpholinoethoxy)anilino]pyrimidin-4-yl]indol-5-yl]prop-2-enamide]	0.1 to 100	0.1 to 100	0.1 to 100	0.1 to 100	0.1 to 100	0.1 to 100	0.1 to 100	
C=CC(=O)Nc1ccc2c(-c3nc(Nc4ccc(N5CCOCC5)cc4)ncc3F)cn(C)c2c1 [Example 57, N-[3-[5-Fluoro-2-(4-morpholinoanilino)pyrimidin-4-yl]-1-methyl-indol-6-yl]prop-2-enamide]	0.1 to 100	0.1 to 100	0.1 to 100	0.1 to 100	0.1 to 100	0.1 to 100	0.1 to 100	
C=CC(=O)Nc1ccc2c(-c3ccnc(Nc4cnn(CCO)c4)n3)cn(C)c2c1 [Example 106, N-[3-[2-[[1-(2-hydroxyethyl)pyrazol-4-yl]amino]pyrimidin-4-yl]-1-methyl-indol-6-yl]prop-2-enamide]	0.1 to 100	0.1 to 100	0.1 to 100	0.1 to 100	0.1 to 100	0.1 to 100	0.1 to 100	0.1 to 100
C=CC(=O)Nc1ccc2c(c1)c(C)cn2-c1nc(Nc2cnn(C3CCN(C4COC4)CC3)c2)ncc1Cl [Example 34, N-[1-[5-Chloro-2-[[1-[1-(oxetan-3-yl)-4-piperidyl]pyrazol-4-yl]amino]pyrimidin-4-yl]-3-methyl-indol-5-yl]prop-2-enamide]	0.1 to 100	0.1 to 100	0.1 to 100	0.1 to 100	0.1 to 100	0.1 to 100	0.1 to 100	
C=CC(=O)Nc1ccc2c(c1)c(C)cn2-c1nc(Nc2ccn(C)n2)ncc1C [Example 81, N-[3-methyl-1-[5-methyl-2-[(1-methylpyrazol-3-yl)amino]pyrimidin-4-yl]indol-5-yl]prop-2-enamide]	0.1 to 100	0.1 to 100	0.1 to 100	0.1 to 100	0.1 to 100	0.1 to 100	0.1 to 100	
C=CC(=O)Nc1ccc2c(c1)c(C)cn2-c1nc(Nc2ccc(N3CCOCC3)cc2)ncc1Cl [Example 24, N-[3-methyl-1-[5-chloro-2-(4-morpholinoanilino)pyrimidin-4-yl]indol-5-yl]prop-2-enamide]	0.1 to 100	0.1 to 100	0.1 to 100	0.1 to 100	0.1 to 100	0.1 to 100	0.1 to 100	
C=CC(=O)Nc1ccc2c(c1)c(C)cn2-c1nc(Nc2ccc(N3CCOCC3)cc2)ncc1F [Example 67, N-[1-[5-Fluoro-2-(4-morpholino-anilino)pyrimidin-4-yl]-3-methyl-indol-5-yl]prop-2-enamide]	0.1 to 100	0.1 to 100	0.1 to 100	0.1 to 100	0.1 to 100	0.1 to 100	0.1 to 100	
